From ChEMBL document CHEMBL1201862, “PubChem BioAssay data set” (2004) come the findings set out here.

What all share (test): growth of human tumour cells (NCI), 48 h
Assay [1] deals with Hs-578T.
The test system of assay [2] is T47D.
Assay [3] relates to SW-620.
Assay [4] concerns CAKI-1.
The subject of assay [5] is PC-3.
The test system of assay [6] is KM12.
The test system of assay [7] is CCRF-CEM.
Assay [8] deals with MCF7.
For assay [9], the system named is SK-MEL-2.
The test system of assay [10] is RXF 393.
Assay [11] has as its system UACC-257.
Assay [12] relates to HCT-15.
For assay [13], the system named is BT-549.
Assay [14] deals with UO-31.
In assay [15] the test system is COLO 205.
Assay [16] concerns HCT-116.
The test system of assay [17] is IGROV-1.
Assay [18] relates to SK-MEL-5.
The test system of assay [19] is SR.
The test system of assay [20] is HL-60.

Each structure is given as a SMILES string.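 Test compounds were applied to cells in 96-well plates for 48 hours at 5 doses. GI50 = concentration required for 50% inhibition of growth.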 The source made the active and inactive calls. Cut-off read from the data, not from the text of the source: active = GI50 up to about 1.1 µM and inactive = higher.

With `C(#C[C@@]12CCC[C@@H]1N(Cc1ccccc1)CO2)c1ccc2c(c1)OCO2`, the GI50 is 65 µM (inactive) in assay [1]; > 100 µM (inactive) in assay [2]; > 100 µM (inactive) in assay [3]; > 100 µM (inactive) in [4]; > 100 µM (inactive) in assay [5]; > 100 µM (inactive) in assay [6]. Further, the GI50 in assay [7] was > 100 µM (inactive); in assay [8], > 100 µM (inactive); in [9], > 100 µM (inactive); in [10] it was > 100 µM (inactive); in [11], > 100 µM (inactive); in [12], > 100 µM. For the same molecule, the GI50 in assay [13], in [14], in assay [15] and in assay [16] was > 100 µM (inactive) throughout.

Regarding `Cc1ccc(S(=O)(=O)N2CC2CCCCC=O)cc1` (centres undefined), the GI50 in [17] is 80.9 µM (inactive); in assay [1], 44.3 µM (inactive); in assay [2], > 100 µM (inactive); in assay [3] it was 52.7 µM (inactive); in assay [4], > 100 µM (inactive); in assay [5] it was > 100 µM (inactive). For the same molecule, the GI50 in assay [6] is 63.1 µM (inactive); in [7], 21.6 µM (inactive); in assay [9], > 100 µM (inactive); in assay [10], > 100 µM (inactive); in assay [11] it was > 100 µM (inactive); in assay [12], > 100 µM. Also, the GI50 in assay [13] is > 100 µM (inactive); in assay [14] it was 85.5 µM (inactive); in assay [15], > 100 µM (inactive); in assay [16] it was 57 µM (inactive); in assay [18] it was 54.2 µM (inactive); in assay [19], 17.1 µM (inactive).

Turning to `COC(=O)C1=C(O)C(C(=O)OC)[C@]2(O)[C@H](C(=O)OC)[C@H]1C[C@@H](c1cccc(OC)c1)[C@H]2C(=O)OC` (some centres undefined), the GI50 in assay [17] is 39 µM (inactive); in assay [1] it was 18.7 µM (inactive); in assay [2], 30.5 µM (inactive); in assay [3], 21.5 µM (inactive); in assay [4], 22.4 µM (inactive); in [6], 27.7 µM (inactive). The GI50 in assay [8] was 23.4 µM (inactive); in assay [9] it was 17.7 µM (inactive); in [10] it was 18.8 µM (inactive); in [11], 37.7 µM (inactive); in assay [12] it was 26.3 µM; in [13], 30.6 µM (inactive). For the same molecule, the GI50 in [14] was 13.9 µM (inactive); in assay [15], 46.1 µM (inactive); in [20], 0.207 µM (active); in assay [16], 22.2 µM (inactive); in assay [18] it was 23.5 µM (inactive); in assay [19], 21.9 µM (inactive).

Consider `CN1CCN(C(=S)N(C(=O)c2ccc(Cl)cc2)C2CCCCC2)CC1`, for which the GI50 in assay [17] was > 100 µM (inactive); in assay [1] it was 27.4 µM (inactive); in assay [2] it was > 100 µM (inactive); in assay [3], > 100 µM (inactive); in assay [6], > 100 µM (inactive); in assay [7], 72.4 µM (inactive). Besides, the GI50 is > 100 µM (inactive) in assay [8]; > 100 µM (inactive) in assay [9]; > 100 µM (inactive) in [10]; > 100 µM (inactive) in assay [11]; > 100 µM in assay [12]; > 100 µM (inactive) in assay [13]. Moreover, the GI50 in assay [14] is > 100 µM (inactive); in [15], > 100 µM (inactive); in assay [20] it was 61.7 µM (inactive); in assay [18] it was > 100 µM (inactive); in [19], 58.9 µM (inactive).
